Experimental data as given in patent US20250255932A1, “Granulocyte-Colony Stimulating Factor For The Promotion Of Scarless Tissue Regeneration” (The United States Government As Represented By The …, priority 2024, published 2025).

Columns and labels:
[1] = tested on: ear hole injury in WT and CXCR2-KO mice; experiment: Ear hole closure with topical imiquimod 5% cream; assay type: in vivo
Experimental: For ear wounding, a standard 2 mm mechanical punch (Roboz, Gaithersburg, MD) was used to create a hole in the center of each outer ear (pinna). Ear hole diameter was measured using a dissection microscope (Nikon) in the horizontal and vertical directions on a weekly basis. Ears were excluded if there were signs of wound infection, tearing of the ear, or abnormal geometric shape. These criteria were pre-established. For the antibiotic experiments, the same protocol as previously published was used (11).
To assess whether the CXCR2-mediated pathway utilized the same molecular mechanism, […] imiquimod 5% cream was rubbed on skin 5 days per week, beginning one week prior to ear hole injury in WT and CXCR2-KO mice. […] Imiquimod-treated CXCR2-KO mice achieved complete ear hole closure at a 90% frequency, which was >2-fold higher than CXCR2-KO mice (FIG. 9B, bottom graphs). Indeed, this 90% complete closure rate in imiquimod-treated CXCR2-KO mice is greater than the individual imiquimod or CXCR2 components combined.

Cxcl2 = settings: exogenous CFH; cited from earlier work
[2] = tested on: bone-marrow derived monocytes; experiment: In vitro polarization of bone-marrow derived monocytes (bulk RNA-seq gene expression); assay type: cell-based, mouse; settings: monocytes treated with and without G-CSF, gene expression levels (FPKM)
From the text: (§1) In our single-cell datasets, neutrophils and macrophages were the primary cell types in injured skin to express the G-CSF receptor (Csfr3) (FIG. 8D). […] Immunofluorescence confirmed that macrophages in WT and CXCR2-KO injured skin expressed the G-CSF receptor (FIG. 8E). […] Moreover, wounded tissue was collected at day 4 after injury in the stented back wound model from G-CSF-treated or PBS-treated WT mice. […] Taken together, G-CSF reduces scar formation and promotes tissue regeneration through polarization of infiltrating macrophages into an anti-inflammatory phenotype.
Monocytes were lysed immediately by adding TRIzol LS reagent. The samples were vortexed for 20 seconds, 0.2×volumes of chloroform was added, tubes were mixed by inverting and samples were centrifuged at 13,000 rpm at 4° C. for 15 min. The aqueous phase was then purified and the RNA-seq library were made using NEBNext® Low Input RNA Library Prep Kit (E6420S/L), following the manufacturer's instructions.
Fastq files were aligned to the mm10 reference genome using STAR_2.4.0 in basic two Pass mode using the “Encode” options as specified in the manual. Reads overlapping with annotated genes (Ensembl build mm10) were counted using the summarizeOverlaps function from the R package “GenomicAlignments” in strand-specific, paired-end mode. […]

WT mice undergoing WIHN = experiment: Wound induced hair neogenesis (WIHN), injection into the wound bed; assay type: in vivo; settings: recombinant G-CSF vs PBS injected daily into wound beds of WT mice for the first 3 days
Experimental: To assess whether the circulating factor(s) was a cell or protein, plasma from CXCR2-KO and WT (control) mice was collected and injected daily into the wound beds of WT mice undergoing WIHN for the first 3 days after injury (FIG. 4B). The WIHN model was used because the wound bed was more accessible. […] Thus, a circulating protein in CXCR2-KO plasma improves tissue regeneration.
(§2) Next, recombinant G-CSF or PBS (control) was injected daily into the wound beds of WT mice undergoing WIHN for the first 3 days (FIG. 4D). […] This experiment was repeated in the stented back wound model. G-CSF-treated mice healed with >3-fold less scar formation compared to control mice (FIG. 4E). […] Taken together, exogenous G-CSF is sufficient to reduce scar formation and to promote complete tissue regeneration.
1-cm^2 full-thickness skin wounds were made as previously described (10). 5-weeks later, de novo hair follicles were identified by whole-mount alkaline phosphatase staining of dermis preparations as previously described.

[3] = tested on: stented back wounds on WT mice; experiment: Stented back wound model; assay type: in vivo
Experimental: as §2, §1
6 mm disposable biopsy punch (Acuderm) was used to make two circular full thickness wounds on the dorsal back skin of mice. Silicon wound splints (Grace Bio-Labs) were sutured with 4-0 Nylon to prevent skin contracture. Wounds were dressed with a sterile occlusive dressing and monitored daily. Borders were monitored by frequently application of permanent marker.
Standard histology and immunostaining protocols were performed, and investigators were blinded during histologic staining. 4% paraformaldehyde was used as the fixative. Briefly, immunohistochemical analysis was performed on 5-10 μm-thick sections of mouse skin. The following primary antibodies were used: rabbit monoclonal anti-Arginase-1 (93668, Cell Signaling Technology), rabbit polyclonal anti-CD80 (8679, ProSci), rabbit polyclonal anti-Histone H3 (ab5103, Abcam), goat polyclonal anti-MPO (AF3667, R&D Systems), Goat polyclonal anti-CD206 (AF2535, R&D Systems), rabbit monoclonal anti-F4/80 (70076, Cell Signaling Technology), rabbit polyclonal anti-COX2 (ab15191, Abcam), rabbit anti-iNOS (2982, Cell Signaling Technology), rabbit polyclonal anti-GCSFR (bs-2574R, Bioss) rabbit monoclonal anti-CD163 (68922, Cell Signaling Technology) and rat anti-Ly6G (551459, BD Pharmingen). […] After staining, images were directly analyzed using a Leica Microsystems DM6 B microscope equipped with a DFC9000 Camera or Keyence imaging system. […] Immunofluorescent images were analyzed using FIJI (40). The signal for the protein of interest was calculated as the percent area occupied by the cells positive for the protein of interest within the tissue section.
The paraffin sections were first de-waxed and hydrated. […] The acquired images were analyzed for fibrosis by quantifying the percent of collagen 1 (PSR) signal within the wounded tissue region. […]

[4] = tested on: epidermolysis bullosa patients; settings: systemic G-CSF; cited from earlier work

With `CC(C)Cn1cnc2c(N)nc3ccccc3c21` [Imiquimod, imiquimod] the ear hole closure ([1]; imiquimod 5% cream on skin 5 days per week from one week prior to injury, vs control-treated mice) was “closed their ear holes even more efficiently than control-treated mice”, the “frequency of complete ear hole closure” value ([1]; imiquimod-treated CXCR2-KO mice) was 90% and the “complete ear hole closure frequency relative to CXCR2-KO mice” value ([1]; imiquimod-treated CXCR2-KO mice vs CXCR2-KO mice) was over 2 fold.

For complement factor H [CFH], the “fibroblast-specific expression of Cxcl2” value (Cxcl2) is listed as “reduces fibroblast-specific expression of Cxcl2”, the macrophage recruitment (Cxcl2) is listed as “no changes in macrophage recruitment” and the neutrophil recruitment (Cxcl2) is listed as “reduced neutrophil recruitment”. For the same molecule, the tissue regeneration (Cxcl2) was “partial tissue regeneration”.

B1: Granulocyte Colony-Stimulating Factor (protein, UniProt P09920 31-208, looked up)
Granulocyte …: VPLVTVSALPPSLPLPRSFLLKSLEQVRKIQASGSVLLEQLCATYKLCHPEELVLLGHSLGIPKASLSGCSSQALQQTQCLSQLHSGLCLYQGLLQALSGISPALAPTLDLLQLDVANFATTIWQQMENLGVAPTVQPTQSAMPAFTSAFQRRAGGVLAISYLQGFLETARLALHHLA
notes: recombinant G-CSF injected into wound beds of WT mice
For B1, the polarization of monocytes [2] was “directly polarized in vitro bone-marrow derived monocytes into an anti-inflammatory state”, the “increase in hair follicle regeneration compared to control mice” value (WT mice undergoing WIHN) was 5 fold and the “less scar formation compared to control mice” value ([3]; G-CSF vs PBS, scar size at day 28 after injury) was over 3 fold. For the same molecule, the “fibrosis in healed skin (picrosirius red staining)” value ([3]; G-CSF-treated WT mice vs control skin) was “less fibrosis than control skin”, the “anti-inflammatory macrophages (Cd163 and Mrc1) in wounded tissue” value ([3]; day 4 after injury, G-CSF-treated vs PBS-treated WT mice) was “more anti-inflammatory macrophages” and the average scar diameter ([3]; histological analysis, G-CSF-treated WT mice (PBS ~1.8 mm)) was about 0.5 mm. For the same molecule, the “blister counts and wound sizes” value [4] was “reduced blister counts and wound sizes”.
